# EP4417602A1, “SUBSTITUTED PYRAZOLE CARBOXAMIDES, SALTS THEREOF AND THEIR USE AS HERBICIDALLY ACTIVE SUBSTANCES” (Bayer AG, priority 2023, dated 2024)
# Key:
# [1] = system: GLXMA; experiment: D. Pre-emergence effects on crop plants (Tables D); format: in vivo, Glycine max; details: crop plant
# Procedure, shortened: (§1)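 Pre-emergence soil-surface treatment at 320 g/ha or lower, using wettable-powder or emulsifiable-concentrate formulations in water plus 0.5% additive, over freshly sown seeds in covered sandy loam. Damage was rated visually as percent versus untreated pots (100% = dead plants) after about 3 weeks of greenhouse growth.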
# [2] = system: VIOTR; experiment: C. Herbicidal pre-emergence action, weed and crop plants (Tables C); format: in vivo, Viola tricolor; details: application rate 320 g/ha; Table C12a
# Description: (§2) Seeds of mono- and dicotyledonous weed plants and crop plants were sown, in plastic or organic planting pots, in sandy loam and covered with soil. The compounds according to the invention, formulated in the form of wettable powders (WP) or as emulsifiable concentrates (EC), were applied to the surface of the covering soil as aqueous suspension or emulsion, with the addition of 0.5% of an additive, at an application rate of 6001 of water/ha (converted). Following treatment, the pots were placed in a greenhouse and kept under optimum growth conditions for the test plants. The visual grading of the damage to the test plants was carried out after ca. 3 weeks in comparison to untreated controls (herbicidal effect in percent (%): 100% effect = plants have died off, 0% effect = as control plants). Tables C1 to C12 below show the effects of selected compounds of the general formula (I) according to table 1 on various harmful plants and an application rate corresponding to 320 g/ha or below obtained by the experimental procedure mentioned above. Table C1: pre-emergence activity at 320g/ha against KCHSC in %
# [3] = system: ZEAMX; experiment: D. Pre-emergence effects on crop plants (Tables D); format: in vivo, Zea mays; details: crop plant
# Description: (§3) Seeds of mono- and dicotyledonous weed plants and crop plants were sown, in plastic or organic planting pots, in sandy loam and covered with soil. The compounds according to the invention, formulated in the form of wettable powders (WP) or as emulsifiable concentrates (EC), were applied to the surface of the covering soil as aqueous suspension or emulsion, with the addition of 0.5% of an additive, at an application rate of 6001 of water/ha (converted).
# (§4) Following treatment, the pots were placed in a greenhouse and kept under optimum growth conditions for the test plants. The visual grading of the damage to the test plants was carried out after ca. 3 weeks in comparison to untreated controls (herbicidal effect in percent (%): 100% effect = plants have died off, 0% effect = as control plants).
# (§5) Tables D1 to D5 below show the effects of various compounds of the general formula (I) according to Table 1 on various crop plants and an application rate corresponding to 320 g/ha or below obtained by the experimental procedure mentioned above in Biological Examples, Section C. Table D1a: pre-emergence activity at 320g/ha against ZEAMX in %
# [4] = system: TRZAS; experiment: F. Post-emergence effects on crop plants (Tables F); format: in vivo, Triticum aestivum; details: crop plant
# Procedure, shortened: (§6)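 Plants were grown in sandy loam in a greenhouse and sprayed post-emergence at the single-leaf stage, 2–3 weeks after sowing. Visual damage was scored after ca. 3 weeks against untreated controls (0% = as control, 100% = dead).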
# [5] = system: GLXMA; experiment: as above; format: in vivo, Glycine max; details: application rate 320 g/ha, crop plant
# Procedure, shortened: as §6
# [6] = system: TRZAS; experiment: D. Pre-emergence effects on crop plants (Tables D); format: in vivo, Triticum aestivum; details: crop plant
# Description: as §3, §4, §5
# [7] = system: ZEAMX; experiment: F. Post-emergence effects on crop plants (Tables F); format: in vivo, Zea mays; details: crop plant
# Procedure, shortened: as §6
# [8] = system: BRSNW; experiment: D. Pre-emergence effects on crop plants (Tables D); format: in vivo, Brassica napus; details: crop plant
# Procedure, shortened: as §1
# [9] = system: KCHSC; experiment: C. Herbicidal pre-emergence action, weed and crop plants (Tables C); format: in vivo, Kochia scoparia; details: application rate 320 g/ha; Table C1
# Description: as §2
# [10] = system: BRSNW; experiment: F. Post-emergence effects on crop plants (Tables F); format: in vivo, Brassica napus; details: application rate 320 g/ha, crop plant
# Procedure, shortened: as §6
# [11] = system: DIGSA; experiment: A. Herbicidal pre-emergence action on harmful plants (Tables A); format: in vivo, Digitaria sanguinalis
# Procedure, shortened: (§7)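 Greenhouse pre-emergence test: compound applied to the soil surface at 1280 g/ha or below, and herbicidal effect rated visually at ca. 3 weeks on a 0–100% scale against untreated plants.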
# [12] = system: ECHCG; experiment: as above; format: in vivo, Echinochloa crus-galli; details: visual grading after ca. 3 weeks vs untreated controls, 100% = plants have died off, 0% = as control plants
# Procedure, shortened: as §7
# [13] = system: AMARE; experiment: B. Herbicidal post-emergence action on harmful plants (Tables B); format: in vivo, Amaranthus retroflexus; details: application rate 1280 g/ha; Table B8
# Experimental: (§8) Seeds of mono- and dicotyledonous weed plants were placed in plastic pots in sandy loam soil (doubly sown with in each case one species of mono- or dicotyledonous weed plants per pot), covered with soil and cultivated in a greenhouse under controlled growth conditions. 2 to 3 weeks after sowing, the test plants were treated at the one-leaf stage. The compounds of the invention, formulated in the form of wettable powders (WP) or as emulsion concentrates (EC), were applied onto the green parts of the plants as aqueous suspension or emulsion with addition of 0.5% additive at a water application rate of 600 liters per hectare (converted). After the test plants had been kept in the greenhouse under optimum growth conditions for about 3 weeks, the activity of the preparations was rated visually in comparison to untreated controls. For example, 100% activity = the plants have died, 0% activity = like control plants. Tables B1 to B12, below, show the effects of selected compounds of the general formula (I) according to table 1 on various harmful plants and an application rate corresponding to 1280 g/ha or below obtained by the experimental procedure mentioned above. Table B1a: post-emergence activity at 1280g/ha against ABUTH in %
# [14] = system: POAAN; experiment: as above; format: in vivo, Poa annua; details: application rate 1280 g/ha; Table B7a
# Procedure, shortened: (§9)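 Activity was scored visually as % damage (100% = dead, 0% = like untreated) about 3 weeks after treatment. Plants at the one-leaf stage, 2-3 weeks old, were sprayed with WP/EC formulations plus 0.5% additive (600 L/ha water, up to 1280 g/ha). Plants were grown in sandy loam in a greenhouse.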
# [15] = system: SETVI; experiment: A. Herbicidal pre-emergence action on harmful plants (Tables A); format: in vivo, Setaria viridis; details: visual grading after ca. 3 weeks vs untreated controls, 100% = plants have died off, 0% = as control plants
# Procedure, shortened: as §7
# [16] = system: POAAN; experiment: as above; format: in vivo, Poa annua
# Procedure, shortened: as §7
# [17] = system: STEME; experiment: as above; format: in vivo, Stellaria media; details: visual grading after ca. 3 weeks vs untreated controls, 100% = plants have died off, 0% = as control plants
# Procedure, shortened: as §7
# [18] = system: AMARE; experiment: as above; format: in vivo, Amaranthus retroflexus; details: application rate 1280 g/ha; visual grading after ca. 3 weeks vs untreated controls; 100% = plants have died off, 0% = as control plants
# Procedure, shortened: as §7
# [19] = system: SETVI; experiment: B. Herbicidal post-emergence action on harmful plants (Tables B); format: in vivo, Setaria viridis; details: application rate 1280 g/ha; Table B5
# Procedure, shortened: as §9
# [20] = system: MATIN; experiment: A. Herbicidal pre-emergence action on harmful plants (Tables A); format: in vivo, Matricaria inodora; details: application rate 1280 g/ha; visual grading after ca. 3 weeks vs untreated controls; 100% = plants have died off, 0% = as control plants
# Procedure, shortened: as §7
# [21] = system: ABUTH; experiment: as above; format: in vivo, Abutilon theophrasti; details: application rate 1280 g/ha; visual grading after ca. 3 weeks vs untreated controls; 100% = plants have died off, 0% = as control plants
# Description: Seeds of mono- and dicotyledonous weed plants were sown in plastic pots (double sowings with one species of mono- and one species of dicotyledonous weed plants per pot), in sandy loam, and covered with soil. The compounds according to the invention, formulated in the form of wettable powders (WP) or as emulsifiable concentrates (EC), were applied to the surface of the covering soil as aqueous suspension or emulsion, with the addition of 0.5% of an additive, at an application rate of 6001 of water per hectare (converted). Following treatment, the pots were placed in a greenhouse and kept under optimum growth conditions for the test plants. The visual grading of the damage to the test plants was carried out after ca. 3 weeks in comparison to untreated controls (herbicidal effect in percent (%): 100% effect = plants have died off, 0% effect = as control plants). Tables A1 to A12, below, show the effects of selected compounds of the general formula (I) according to table 1 on various harmful plants and an application rate corresponding to 1280 g/ha or below obtained by the experimental procedure mentioned above. Table A1: pre-emergence activity at 1280g/ha against ABUTH in %
# [22] = system: STEME; experiment: B. Herbicidal post-emergence action on harmful plants (Tables B); format: in vivo, Stellaria media; details: application rate 1280 g/ha; Table B6
# Procedure, shortened: as §9
# [23] = system: KCHSC; experiment: as above; format: in vivo, Kochia scoparia; details: application rate 1280 g/ha; Table B10a
# Experimental: as §8
# [24] = system: LOLRI; experiment: A. Herbicidal pre-emergence action on harmful plants (Tables A); format: in vivo, Lolium rigidum; details: visual grading after ca. 3 weeks vs untreated controls, 100% = plants have died off, 0% = as control plants
# Procedure, shortened: as §7
smiles,measurement,setting,value
"COCc1c(C(=O)N2CCCC2(C)Cc2ccccc2F)cnn1C (single isomer, unassigned) [Example I-066]",pre-emergence activity against GLXMA,"[1]; application rate 80 g/ha, Table D4b",0%
same,pre-emergence activity against GLXMA,"[1]; application rate 320 g/ha, Table D4a",0%
same,pre-emergence activity against VIOTR,[2],80%
same,pre-emergence activity against ZEAMX,"[3]; application rate 80 g/ha, Table D1b",0%
same,pre-emergence activity against ZEAMX,"[3]; application rate 320 g/ha, Table D1a",0%
same,post-emergence activity against TRZAS in %,[4]; application rate 80 g/ha,0%
same,post-emergence activity against TRZAS in %,[4]; application rate 320 g/ha,0%
same,post-emergence activity against GLXMA in %,[5],0%
same,pre-emergence activity against TRZAS,"[6]; application rate 80 g/ha, Table D2b",0%
same,pre-emergence activity against TRZAS,"[6]; application rate 320 g/ha, Table D2a",0%
same,post-emergence activity against ZEAMX in %,[7]; application rate 80 g/ha,0%
same,post-emergence activity against ZEAMX in %,[7]; application rate 320 g/ha,0%
same,pre-emergence activity against BRSNW in %,[8]; application rate 80 g/ha,0%
same,pre-emergence activity against BRSNW in %,[8]; application rate 320 g/ha,0%
same,pre-emergence activity against KCHSC,[9],100%
same,post-emergence activity against BRSNW in %,[10],0%
"Cn1ncc(C(=O)N2CCCC2Cc2ccccc2F)c1COCC(F)(F)F (single isomer, unassigned) [Example I-122]",pre-emergence activity against DIGSA,"[11]; application rate 80 g/ha, Table A12c",90%
same,pre-emergence activity against DIGSA,"[11]; application rate 320 g/ha, Table A12b",90%
same,pre-emergence activity against DIGSA,"[11]; application rate 1280 g/ha, Table A12a",100%
same,pre-emergence activity against ECHCG,[12]; application rate 80 g/ha,90%
same,pre-emergence activity against ECHCG,[12]; application rate 320 g/ha,100%
same,pre-emergence activity against ECHCG,[12]; application rate 1280 g/ha,100%
same,post-emergence activity against AMARE,[13],90%
same,post-emergence activity against POAAN,[14],90%
same,pre-emergence activity against SETVI,[15]; application rate 80 g/ha,90%
same,pre-emergence activity against SETVI,[15]; application rate 320 g/ha,90%
same,pre-emergence activity against SETVI,[15]; application rate 1280 g/ha,100%
same,pre-emergence activity against POAAN,"[16]; application rate 80 g/ha, Table A7c",90%
same,pre-emergence activity against POAAN,"[16]; application rate 320 g/ha, Table A7b",100%
same,pre-emergence activity against POAAN,"[16]; application rate 1280 g/ha, visual grading after ca. 3 weeks vs untreated controls, 100% = plants have died off, 0% = as control plants",100%
same,pre-emergence activity against STEME,[17]; application rate 320 g/ha,90%
same,pre-emergence activity against STEME,[17]; application rate 1280 g/ha,100%
same,pre-emergence activity against AMARE,[18],100%
same,post-emergence activity against SETVI,[19],90%
same,pre-emergence activity against MATIN,[20],100%
same,pre-emergence activity against ABUTH,[21],100%
same,post-emergence activity against STEME,[22],90%
same,post-emergence activity against KCHSC,[23],90%
same,pre-emergence activity against LOLRI,[24]; application rate 320 g/ha,100%
same,pre-emergence activity against LOLRI,[24]; application rate 1280 g/ha,100%
